{
  "source": "patent US20150010928A1",
  "about": "“MEANS AND METHODS FOR ASSESSING AN ENDOCRINE DISEASE OR DISORDER” (priority 2012, published 2015)",
  "tested_on": "female rats",
  "assay": "Plasma metabolite profiling (GC-MS, LC-MS, SPE-LC-MS) in female rats dosed once daily over 28 days (OECD 407)",
  "assay_type": "in vivo, rat",
  "details": "high dose",
  "method_in_brief": "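Metabolites were measured by GC-MS (derivatised) and reversed-phase LC-MS, with steroids by online SPE-LC-MS, in plasma drawn from fasted rats on days 7, 14 and 28 of once-daily dosing (5/sex/group). Values are ratios versus sex-matched untreated controls, normalized to pool samples, with Welch-test p-values.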",
  "note": "Marks after values point to notes of the source that are not given here.",
  "data": [
    {"compound": "C[C@]12C=CC3=C4CCC(=O)C=C4CCC3C1CC[C@@H]2O", "note": "(stereo partly drawn) [Trenbolone]", "values": [
      {"measurement": "3-Hydroxybutyrate", "setting": "f7, female rats, Table 15a", "value": "2.05 *"},
      {"measurement": "DAG (C18:1,C18:2)", "setting": "f7, female rats, Table 15a", "value": "1.42 *"},
      {"measurement": "Glutamate", "setting": "f7, female rats, Table 15a", "value": 1.18},
      {"measurement": "Glycine", "setting": "f7, female rats, Table 15a", "value": "1.18 *"},
      {"measurement": "Phosphatidylcholine (C16:0,C20:5)", "setting": "f7, female rats, Table 15a", "value": 1.09},
      {"measurement": "TAG (C16:0,C16:1)", "setting": "f7, female rats, Table 15a", "value": "1.49 *"},
      {"measurement": "TAG (C16:0,C18:1,C18:3)", "setting": "f7, female rats, Table 15a", "value": "1.48 *"},
      {"measurement": "TAG (C16:0,C18:2)", "setting": "f7, female rats, Table 15a", "value": "1.83 *"},
      {"measurement": "TAG (C18:1,C18:2)", "setting": "f7, female rats, Table 15a", "value": "1.72 *"},
      {"measurement": "TAG (C18:2,C18:2)", "setting": "f7, female rats, Table 15a", "value": "1.61 *"},
      {"measurement": "TAG (C18:3, C18:2, C18:1)", "setting": "f7, female rats, Table 15a", "value": "1.92 *"},
      {"measurement": "TAG (DAG-Fragment)", "setting": "f7, female rats, Table 15a", "value": "1.8 *"},
      {"measurement": "TAG No 059", "setting": "f7, female rats, Table 15a", "value": "1.62 *"},
      {"measurement": "Threonic acid", "setting": "f7, female rats, Table 15a", "value": "1.28 *"},
      {"measurement": "trans-4-Hydroxyproline", "setting": "f7, female rats, Table 15a", "value": "1.31 *"},
      {"measurement": "Androstenedione", "setting": "f7, female rats, Table 15b", "value": "0.3 *"},
      {"measurement": "Arginine", "setting": "f7, female rats, Table 15b", "value": "0.76 *"},
      {"measurement": "Campesterol", "setting": "f7, female rats, Table 15b", "value": "0.53 *"},
      {"measurement": "Ceramide (d18:1,C24:0)", "setting": "f7, female rats, Table 15b", "value": "0.5 *"},
      {"measurement": "Lactate", "setting": "f7, female rats, Table 15b", "value": "0.65 *"},
      {"measurement": "Lysine", "setting": "f7, female rats, Table 15b", "value": "0.68 *"},
      {"measurement": "Metanephrine", "setting": "f7, female rats, Table 15b", "value": 1},
      {"measurement": "Normetanephrine", "setting": "f7, female rats, Table 15b", "value": "0.83 *"},
      {"measurement": "Phosphatidylcholine (C16:0,C20:5)", "setting": "f7, female rats, Table 15b", "value": 1.09},
      {"measurement": "Phosphatidylcholine (C16:0,C22:6)", "setting": "f7, female rats, Table 15b", "value": 0.89},
      {"measurement": "Phosphatidylcholine (C18:0, C20:3)", "setting": "f7, female rats, Table 15b", "value": "0.77 *"},
      {"measurement": "Phosphatidylcholine (C18:0,C18:1)", "setting": "f7, female rats, Table 15b", "value": 0.84},
      {"measurement": "Progesterone", "setting": "f7, female rats, Table 15b", "value": "0.34 *"},
      {"measurement": "Pyruvate", "setting": "f7, female rats, Table 15b", "value": "0.57 *"},
      {"measurement": "Sphingomyelin (d18:1,C23:0)", "setting": "f7, female rats, Table 15b", "value": "0.51 *"},
      {"measurement": "Sphingomyelin (d18:1,C24:0)", "setting": "f7, female rats, Table 15b", "value": "0.62 *"},
      {"measurement": "Urea", "setting": "f7, female rats, Table 15b", "value": "0.74 *"},
      {"measurement": "3-Hydroxybutyrate", "setting": "f14, female rats, Table 15a", "value": "1.73 *"},
      {"measurement": "DAG (C18:1,C18:2)", "setting": "f14, female rats, Table 15a", "value": 1.56},
      {"measurement": "Glutamate", "setting": "f14, female rats, Table 15a", "value": "1.13 *"},
      {"measurement": "Glycine", "setting": "f14, female rats, Table 15a", "value": "1.2 *"},
      {"measurement": "Phosphatidylcholine (C16:0,C20:5)", "setting": "f14, female rats, Table 15a", "value": "1.18 *"},
      {"measurement": "TAG (C16:0,C16:1)", "setting": "f14, female rats, Table 15a", "value": 1.41},
      {"measurement": "TAG (C16:0,C18:1,C18:3)", "setting": "f14, female rats, Table 15a", "value": "2.26 *"},
      {"measurement": "TAG (C16:0,C18:2)", "setting": "f14, female rats, Table 15a", "value": 1.9},
      {"measurement": "TAG (C18:1,C18:2)", "setting": "f14, female rats, Table 15a", "value": "1.97 *"},
      {"measurement": "TAG (C18:2,C18:2)", "setting": "f14, female rats, Table 15a", "value": "2.21 *"},
      {"measurement": "TAG (C18:3, C18:2, C18:1)", "setting": "f14, female rats, Table 15a", "value": "2.39 *"},
      {"measurement": "TAG (DAG-Fragment)", "setting": "f14, female rats, Table 15a", "value": "2.67 *"},
      {"measurement": "TAG No 059", "setting": "f14, female rats, Table 15a", "value": "2.14 *"},
      {"measurement": "Threonic acid", "setting": "f14, female rats, Table 15a", "value": "1.76 *"},
      {"measurement": "trans-4-Hydroxyproline", "setting": "f14, female rats, Table 15a", "value": "1.37 *"},
      {"measurement": "Androstenedione", "setting": "f14, female rats, Table 15b", "value": "0.15 *"},
      {"measurement": "Arginine", "setting": "f14, female rats, Table 15b", "value": "0.69 *"},
      {"measurement": "Campesterol", "setting": "f14, female rats, Table 15b", "value": "0.4 *"},
      {"measurement": "Ceramide (d18:1,C24:0)", "setting": "f14, female rats, Table 15b", "value": "0.41 *"},
      {"measurement": "Lactate", "setting": "f14, female rats, Table 15b", "value": "0.56 *"},
      {"measurement": "Lysine", "setting": "f14, female rats, Table 15b", "value": "0.62 *"},
      {"measurement": "Metanephrine", "setting": "f14, female rats, Table 15b", "value": 1.03},
      {"measurement": "Normetanephrine", "setting": "f14, female rats, Table 15b", "value": "0.83 *"},
      {"measurement": "Phosphatidylcholine (C16:0,C20:5)", "setting": "f14, female rats, Table 15b", "value": 1.18},
      {"measurement": "Phosphatidylcholine (C16:0,C22:6)", "setting": "f14, female rats, Table 15b", "value": "0.87 *"},
      {"measurement": "Phosphatidylcholine (C18:0, C20:3)", "setting": "f14, female rats, Table 15b", "value": "0.75 *"},
      {"measurement": "Phosphatidylcholine (C18:0,C18:1)", "setting": "f14, female rats, Table 15b", "value": "0.66 *"},
      {"measurement": "Progesterone", "setting": "f14, female rats, Table 15b", "value": "0.17 *"},
      {"measurement": "Pyruvate", "setting": "f14, female rats, Table 15b", "value": "0.61 *"},
      {"measurement": "Sphingomyelin (d18:1,C23:0)", "setting": "f14, female rats, Table 15b", "value": "0.46 *"},
      {"measurement": "Sphingomyelin (d18:1,C24:0)", "setting": "f14, female rats, Table 15b", "value": "0.64 *"},
      {"measurement": "Urea", "setting": "f14, female rats, Table 15b", "value": "0.72 *"},
      {"measurement": "3-Hydroxybutyrate", "setting": "f28, female rats, Table 15a", "value": "1.32 *"},
      {"measurement": "DAG (C18:1,C18:2)", "setting": "f28, female rats, Table 15a", "value": "1.79 *"},
      {"measurement": "Glutamate", "setting": "f28, female rats, Table 15a", "value": "1.23 *"},
      {"measurement": "Glycine", "setting": "f28, female rats, Table 15a", "value": "1.37 *"},
      {"measurement": "Phosphatidylcholine (C16:0,C20:5)", "setting": "f28, female rats, Table 15a", "value": "1.17 *"},
      {"measurement": "TAG (C16:0,C16:1)", "setting": "f28, female rats, Table 15a", "value": "1.28 *"},
      {"measurement": "TAG (C16:0,C18:1,C18:3)", "setting": "f28, female rats, Table 15a", "value": "2.48 *"},
      {"measurement": "TAG (C16:0,C18:2)", "setting": "f28, female rats, Table 15a", "value": "2.08 *"},
      {"measurement": "TAG (C18:1,C18:2)", "setting": "f28, female rats, Table 15a", "value": "2.25 *"},
      {"measurement": "TAG (C18:2,C18:2)", "setting": "f28, female rats, Table 15a", "value": "2.7 *"},
      {"measurement": "TAG (C18:3, C18:2, C18:1)", "setting": "f28, female rats, Table 15a", "value": "3.06 *"},
      {"measurement": "TAG (DAG-Fragment)", "setting": "f28, female rats, Table 15a", "value": "3.12 *"},
      {"measurement": "TAG No 059", "setting": "f28, female rats, Table 15a", "value": "2.7 *"},
      {"measurement": "Threonic acid", "setting": "f28, female rats, Table 15a", "value": 0.84},
      {"measurement": "trans-4-Hydroxyproline", "setting": "f28, female rats, Table 15a", "value": "1.66 *"},
      {"measurement": "Androstenedione", "setting": "f28, female rats, Table 15b", "value": "0.23 *"},
      {"measurement": "Arginine", "setting": "f28, female rats, Table 15b", "value": "0.78 *"},
      {"measurement": "Campesterol", "setting": "f28, female rats, Table 15b", "value": 0.9},
      {"measurement": "Ceramide (d18:1,C24:0)", "setting": "f28, female rats, Table 15b", "value": "0.69 *"},
      {"measurement": "Lactate", "setting": "f28, female rats, Table 15b", "value": "0.59 *"},
      {"measurement": "Lysine", "setting": "f28, female rats, Table 15b", "value": "0.65 *"},
      {"measurement": "Metanephrine", "setting": "f28, female rats, Table 15b", "value": "0.47 *"},
      {"measurement": "Normetanephrine", "setting": "f28, female rats, Table 15b", "value": "0.75 *"},
      {"measurement": "Phosphatidylcholine (C16:0,C20:5)", "setting": "f28, female rats, Table 15b", "value": 1.17},
      {"measurement": "Phosphatidylcholine (C16:0,C22:6)", "setting": "f28, female rats, Table 15b", "value": 0.93},
      {"measurement": "Phosphatidylcholine (C18:0, C20:3)", "setting": "f28, female rats, Table 15b", "value": "0.87 *"},
      {"measurement": "Phosphatidylcholine (C18:0,C18:1)", "setting": "f28, female rats, Table 15b", "value": "0.81 *"},
      {"measurement": "Progesterone", "setting": "f28, female rats, Table 15b", "value": "0.3 *"},
      {"measurement": "Pyruvate", "setting": "f28, female rats, Table 15b", "value": "0.72 *"},
      {"measurement": "Sphingomyelin (d18:1,C23:0)", "setting": "f28, female rats, Table 15b", "value": "0.64 *"},
      {"measurement": "Sphingomyelin (d18:1,C24:0)", "setting": "f28, female rats, Table 15b", "value": "0.74 *"},
      {"measurement": "Urea", "setting": "f28, female rats, Table 15b", "value": "0.54 *"}
    ]}
  ]
}
